# Calls of active or inactive are those of the source.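 Rule for the calls: active = IC50 at or below 20 µM in the dose response; inactive = the rest.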
# System: HL-1 cardiomyocytes, H2O2 protection, ATPLite, 2 h
# Experiment: protection of HL-1 cells from peroxide death, SAR follow-up, hydrogen peroxide, ATP luminescence (AID 623872)
row,Compound,IC50
1,Cc1ccc(S(=O)(=O)N(Cc2cccnc2)Cc2cc3ccccc3[nH]c2=O)cc1,> 79 µM (inactive)
2,COc1cccc(CN(C)C(=O)c2cc(-c3ccccc3)nc3ccc(C)cc23)c1OC,> 79 µM (inactive)
3,COc1ccc(-c2cc(C(=O)NCc3ccco3)c3ccccc3n2)cc1OC,> 79 µM (inactive)
4,COCCNC(=O)C(c1ccc(O)cc1)N(C(=O)c1snc(C(N)=O)c1N)c1ccccc1F (stereo not given),> 79 µM (inactive)
5,COc1ccc2c(c1OC)C(=O)N1c3ccccc3C(=O)N(c3cccc(Br)c3)C21 (stereo not given),1.89 µM
6,NC(=O)c1nsc(C(=O)N(Cc2ccccc2)C(C(=O)NCc2ccc(F)cc2)c2ccc(O)cc2)c1N (stereo not given),> 79 µM (inactive)
7,COc1ccc(S(=O)(=O)N(Cc2cccnc2)Cc2cc3ccccc3[nH]c2=O)cc1,> 79 µM (inactive)
8,Cc1ccc2cc(CN(C)S(=O)(=O)c3ccc(F)cc3)c(=O)[nH]c2c1,> 79 µM (inactive)
9,Cc1ccc(C)c(S(=O)(=O)N2CCN(C(=O)c3cc4cc(C)ccc4nc3C)CC2)c1,> 79 µM (inactive)
10,COc1ccc(-n2cc(-c3ccccc3)c3c(N4CCCCC4)ncnc32)cc1,> 79 µM (inactive)
11,COc1ccc2c(=O)c(C(=O)N3CCN(S(=O)(=O)c4c(C)cc(C)cc4C)CC3)c[nH]c2c1,> 79 µM (inactive)
12,Cc1ccc(-c2[nH]c3ccccc3c2C(=O)C(=O)N(C)C)cc1,> 79 µM (inactive)
13,Cc1ccc(S(=O)(=O)N2CCN(C(=O)c3cc(=O)[nH]c4ccccc34)CC2)cc1C,> 79 µM (inactive)
14,COc1cccc(NC(=O)CN(C)C(=O)c2cc(-c3cccs3)nn2-c2ccccc2)c1,> 79 µM (inactive)
15,COc1ccc2cc(C(=O)N3CCN(S(=O)(=O)c4ccc(C)cc4C)CC3)c(C)nc2c1,> 79 µM (inactive)
16,COc1ccc(-c2cc(C(=O)N(C)C)c3ccccc3n2)cc1OC,> 79 µM (inactive)
17,COc1cccc(CN(C)C(=O)c2cc(-c3ccc(OC)c(OC)c3)nc3ccccc23)c1,> 79 µM (inactive)
18,COc1ccc(N2C(=O)c3ccccc3N3C(=O)c4c(ccc(OC)c4OC)C23)cc1 (stereo not given),> 79 µM (inactive)
19,CCCN(CC(=O)Nc1ccccc1OC)C(=O)c1cc(-c2cccs2)nn1-c1ccccc1,> 79 µM (inactive)
20,O=c1[nH]c2ccccc2cc1CN(Cc1ccco1)S(=O)(=O)c1ccc(F)cc1,> 79 µM (inactive)
21,Cc1ccc(NC(=O)CN(C)C(=O)c2cc(-c3cccs3)nn2-c2ccccc2)cc1,> 79 µM (inactive)
22,Cc1ccc2cc(CN(Cc3cccnc3)S(=O)(=O)c3ccc(F)cc3)c(=O)[nH]c2c1,> 79 µM (inactive)
23,CCN(CC)C(=O)C(=O)c1c(-c2ccccc2)[nH]c2ccccc12,> 79 µM (inactive)

row,Compound,IC50
1,CCN(CC)S(=O)(=O)c1cc(C(=O)N2CCN(Cc3cccc4cccnc34)CC2)ccc1C,> 79 µM (inactive)
2,COc1ccc(-c2cc(C(=O)Nc3ccccc3)c3ccccc3n2)cc1OC,> 79 µM (inactive)
3,COc1ccc(-n2cc(-c3ccccc3)c3c(N4CCCC4)ncnc32)cc1,> 79 µM (inactive)
4,Cc1ccccc1N(C(=O)c1snc(C(N)=O)c1N)C(C(=O)NCc1ccc(F)cc1)c1ccc(O)cc1 (stereo not given),> 79 µM (inactive)
5,COc1ccc2c(c1OC)C(=O)N1c3ccccc3C(=O)N(c3ccc(F)cc3)C21 (stereo not given),35.6 µM (inactive)
6,COc1ccc2c(c1OC)C(=O)N1c3ccccc3C(=O)N(c3ccccc3C)C21 (stereo not given),> 79 µM (inactive)
7,COc1ccc(-c2cc(C(=O)N(C)Cc3ccc(OC)c(OC)c3OC)c3ccccc3n2)cc1OC,> 79 µM (inactive)
8,O=C1c2ccccc2N2C(=O)c3ccccc3[C@H]2N1c1ccccc1,> 79 µM (inactive)
9,CCN(CC(=O)Nc1ccc(OC)cc1)C(=O)c1cc(-c2cccs2)nn1-c1ccccc1,> 79 µM (inactive)
10,COc1ccc(NC(=O)CN(C)C(=O)c2cc(-c3cccs3)nn2-c2ccccc2)cc1,> 79 µM (inactive)
11,COc1cc(-c2cc(C(=O)Nc3cccc(C(C)=O)c3)c3ccccc3n2)cc(OC)c1OC,2.08 µM
12,COCCn1c(SC(C(=O)Nc2cc(C)ccc2C)c2ccccc2)nc2ccccc2c1=O (stereo not given),> 79 µM (inactive)
13,CC(C)CCNC(=O)C(c1ccc(O)cc1)N(C(=O)c1snc(C(N)=O)c1N)c1ccccc1F (stereo not given),> 79 µM (inactive)
14,O=C(C(=O)N1CCCCC1)c1c(-c2ccccc2)[nH]c2ccccc12,> 79 µM (inactive)
15,NC(=O)c1nsc(C(=O)N(c2cccc(F)c2)C(C(=O)NC2CCCC2)c2ccc(O)cc2)c1N (stereo not given),> 79 µM (inactive)
16,COc1ccccc1N1C(=O)c2ccccc2N2C(=O)c3c(ccc(OC)c3OC)C12 (stereo not given),77.1 µM (inactive)
17,COc1cccc(NC(=O)C(Sc2nc3ccccc3c(=O)n2CC(C)C)c2ccccc2)c1 (stereo not given),> 79 µM (inactive)
18,COc1ccc(-c2cc(C(=O)NCc3ccccc3)c3ccccc3n2)cc1OC,> 79 µM (inactive)
19,COc1ccc2cc(C(=O)N3CCN(S(=O)(=O)c4cc(C)ccc4C)CC3)c(C)nc2c1,> 79 µM (inactive)
20,COc1ccc(-n2cc(-c3ccccc3)c3c(NCc4ccccc4)ncnc32)cc1,> 79 µM (inactive)
21,CCCn1c(SC(C(=O)Nc2cccc(OC)c2)c2ccccc2)nc2ccccc2c1=O (stereo not given),> 79 µM (inactive)
22,O=C(C(=O)N1CCCC1)c1c(-c2ccccc2)[nH]c2ccccc12,> 79 µM (inactive)

# — PubChem BioAssay AID623872 (Sanford-Burnham Center for Chemical Genomics, 2012)
